Test results: US6403602B1 (priority 1997, dated 2002)
Structures can show the parent of a compound that is named as a salt. Where two headings read alike, the source gives them in different places.

Columns and labels:
[1] = biological target: mu opioid receptors (Cavia porcellus, UniProt A0ACM8Q262); format: binding, guinea pig; details: read-out: Ki μ [^3H]DAMGO
[2] = tested on: κ2 sites; format: binding, guinea pig
[3] = tested on: electrically stimulated guinea pig ileum; assay: tissue or blood; format: cell-based
[4] = tested on: mu receptors; format: cell-based, guinea pig
[5] = biological target: T1, delta receptors (Cavia porcellus, UniProt A0A286XTF2); assay: biochemical; format: binding, guinea pig
T1 construct: The brains were then homogenized in 50 mM Tris HCl, buffer pH 7.7, using a Polytron; from tissue; host or cells: guinea pig brain homogenate (membrane pellet)

[6] = biological target: kappa3 receptors; format: binding, guinea pig; details: read-out: Ki κ3 [^3H]NalBzoH
[7] = biological target: T2, kappa receptors (Cavia porcellus, UniProt P41144); format: cell-based, guinea pig
T2 construct: The longitudinal muscle with the myenteric plexus attached was gently separated from the underlying circular muscle; from tissue; host or cells: guinea pig ileum longitudinal muscle with myenteric plexus

[8] = tested on: electrically stimulated mouse vas deferens; assay: tissue or blood; format: cell-based
[9] = biological target: T3, delta receptors (Mus musculus, UniProt P32300); format: cell-based
T3 construct: The vas deferens from Swiss-Webster mice (30-35 g) were prepared as described by Hughes et al; from tissue; host or cells: mouse vas deferens (Swiss-Webster)

[10] = read-out: Guinea Pig Ileum IC50
[11] = read-out: IC50 (nM), Guinea Pigs Ileum
[12] = read-out: Mouse Vas Deferens IC50
[13] = Mus musculus, read-out: Mouse Vas Deferens IC50 (nM)
[14] = Cavia porcellus, read-out: Guinea Pig Ileum IC50 (nM)
[15] = read-out: IC50 (nM), Mouse Vas Deferens

Sequence of mu opioid receptors (A0ACM8Q262 1-400): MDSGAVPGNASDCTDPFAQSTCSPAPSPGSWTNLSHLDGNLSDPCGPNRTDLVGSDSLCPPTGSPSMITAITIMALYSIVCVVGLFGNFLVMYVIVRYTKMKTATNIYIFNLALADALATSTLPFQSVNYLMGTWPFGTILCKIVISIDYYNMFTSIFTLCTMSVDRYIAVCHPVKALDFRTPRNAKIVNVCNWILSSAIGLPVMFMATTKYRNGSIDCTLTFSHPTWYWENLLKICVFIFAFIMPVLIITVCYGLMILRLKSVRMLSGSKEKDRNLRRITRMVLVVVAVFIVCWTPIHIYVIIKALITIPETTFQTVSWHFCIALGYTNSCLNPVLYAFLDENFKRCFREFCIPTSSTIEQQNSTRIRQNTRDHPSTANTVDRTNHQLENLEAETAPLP
T3 sequence (P32300 whole entry): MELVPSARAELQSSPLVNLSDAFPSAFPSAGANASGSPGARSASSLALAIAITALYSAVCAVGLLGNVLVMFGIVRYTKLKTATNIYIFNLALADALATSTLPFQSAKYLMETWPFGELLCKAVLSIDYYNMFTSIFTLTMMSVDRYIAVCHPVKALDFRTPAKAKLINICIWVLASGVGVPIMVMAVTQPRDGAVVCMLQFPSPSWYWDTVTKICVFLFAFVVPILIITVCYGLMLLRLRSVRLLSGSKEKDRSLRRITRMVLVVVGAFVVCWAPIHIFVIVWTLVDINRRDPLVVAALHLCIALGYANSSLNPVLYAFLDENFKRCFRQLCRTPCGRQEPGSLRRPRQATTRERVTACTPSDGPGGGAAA
T1 sequence (A0A286XTF2 1-366): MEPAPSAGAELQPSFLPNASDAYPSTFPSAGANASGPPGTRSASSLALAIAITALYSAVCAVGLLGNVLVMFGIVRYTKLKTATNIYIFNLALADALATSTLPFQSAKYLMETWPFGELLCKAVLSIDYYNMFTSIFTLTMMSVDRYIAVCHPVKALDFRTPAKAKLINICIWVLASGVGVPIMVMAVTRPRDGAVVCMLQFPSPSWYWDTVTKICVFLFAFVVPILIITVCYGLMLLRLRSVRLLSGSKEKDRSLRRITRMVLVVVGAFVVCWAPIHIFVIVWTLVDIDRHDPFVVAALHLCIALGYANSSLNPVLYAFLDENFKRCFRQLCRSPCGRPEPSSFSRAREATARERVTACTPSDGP
T2 sequence (P41144 whole entry): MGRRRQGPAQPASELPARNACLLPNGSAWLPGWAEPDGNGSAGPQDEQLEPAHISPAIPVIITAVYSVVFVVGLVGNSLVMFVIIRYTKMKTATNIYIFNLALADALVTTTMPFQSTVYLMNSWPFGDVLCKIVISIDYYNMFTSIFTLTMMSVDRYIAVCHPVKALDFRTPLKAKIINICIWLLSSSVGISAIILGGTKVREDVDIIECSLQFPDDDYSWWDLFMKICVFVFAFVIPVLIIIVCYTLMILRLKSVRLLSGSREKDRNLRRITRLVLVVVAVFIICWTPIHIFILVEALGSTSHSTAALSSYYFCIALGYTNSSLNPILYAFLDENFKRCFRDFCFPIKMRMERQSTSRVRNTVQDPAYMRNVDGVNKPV

Compound: 3-O-benzoyl-7,8-dihydromorphine-6-O-sulfate [NIDA # 20,275]
- Ki [1]: 61.8 nM
- IC50 [2]: > 10000 nM
- IC50 [3, 10]: 649 ± 131 nM
- Guinea Pig Ileum DR with CTAP [4]: 4.03 ± 1.51
- Guinea Pig Ileum Ke of CTAP [4]: 37.64 ± 18.74
- Ki ([5]; read-out: Ki δ [^3H]Cl-DPDPE): 1600 nM

Compound: CCC12CCN(CC3(O)CC3)C(Cc3ccc(O)cc31)C2(C)C (single isomer, unassigned; (+)) [(+)Bremazocine]
- Ki [6]: 0.1 nM
- Ki [1]: 0.1 nM
- IC50 [2]: 11.2 nM
- Ki ([5]; read-out: Ki δ [^3H]Cl-DPDPE): 0.7 nM

Compound: CCC12CCN(CC3CC3)C(C(=O)c3ccc(O)cc31)C2C (single isomer, unassigned; (+)) [(+)EKC-sulfonate]
- Ki [6]: 5.3 nM
- Ki [1]: 1.1 nM
- IC50 [2]: 133 nM
- Ki ([5]; read-out: Ki δ, experiment done with [^3H]DPDPE): 2.6 nM

Compound: CCC12CCN(CC3(O)CC3)C(Cc3ccc(O)cc31)C2(C)C (single isomer, unassigned; (-)) [(−)Bremazocine]
- Ki [6]: 0.1 nM
- Ki [1]: 0.1 nM
- IC50 [2]: 2.2 nM
- IC50 [3, 11]: 0.067 nM
- DR with CTAP [4]: 0.83
- Ki ([5]; read-out: Ki δ [^3H]Cl-DPDPE): 0.3 nM

Compound: CC(C)C[C@@H](NC(=O)[C@H](Cc1ccccc1)NC(=O)CNC(=O)[C@@H](C)NC(=O)[C@@H](N)Cc1ccc(O)cc1)C(=O)O [DADLE-OH]
- Ki [6]: 692 nM
- Guinea Pig Ileum DR with Nor-BNI [7]: 1.53
- Guinea Pig Ileum Ke of Nor-BNI [7]: 38.13
- IC50 [2]: > 10000 nM
- IC50 [8, 12]: 1.6 nM
- IC50 [3, 10]: 13.4 nM
- Guinea Pig Ileum DR with CTAP [4]: 4.33
- Guinea Pig Ileum Ke of CTAP [4]: 30.58
- Ki [5]: 0.3 nM

Compound: C[C@@H](NC(=O)[C@@H](N)Cc1ccc(O)cc1)C(=O)NCC(=O)N(C)[C@@H](Cc1ccccc1)C(=O)NCCO [DAMGO, [D-Ala^2,N-Me-Phe^4,Gly-ol^5]-enkephalin]
- Guinea Pig Ileum DR with Nor-BNI [7]: 1.74
- Guinea Pig Ileum Ke of Nor-BNI [7]: 27.67
- Guinea Pig Ileum Ratio (Nor-BNI) [7]: 0.002
- Mouse Vas Deferens DR with Naltrindole [9]: 0.93
- IC50 [8, 12]: 178 nM
- IC50 [3, 10]: 8.25 nM
- Guinea Pig Ileum DR with CTAP [4]: 4.98
- Guinea Pig Ileum Ke of CTAP [4]: 25.31
- Guinea Pig Ileum Ratio (CTAP) [4]: 1.000

Compound: CC1(C)SSC(C)(C)[C@@H](NC(=O)[C@@H](N)Cc2ccc(O)cc2)C(=O)NCC(=O)N[C@@H](Cc2ccc(Cl)cc2)C(=O)N[C@H]1C(=O)O [DPDPE-Cl]
- Ki [6]: 1030 nM
- IC50 [2]: > 10000 nM
- Ki ([5]; read-out: Ki δ [^3H]Cl-DPDPE): 0.3 nM

Compound: CN1CC[C@]23c4c5ccc(O)c4O[C@H]2[C@@H](O)CC[C@H]3[C@H]1C5 [Dihydromorphine, 7,8-Dihydromorphine]
- IC50 [8, 13]: 8.11 nM
- IC50 [3, 14]: 42.4 nM
- Guinea Pig Ileum DR with CTAP [4]: 12.46
- Guinea Pig Ileum Ke of CTAP [4]: 17.46

Compound: CN1CC[C@]23c4c5ccc(OS(=O)(=O)O)c4O[C@H]2[C@@H](O)C=C[C@H]3[C@H]1C5 [NIDA # 20,268, morphine-3-O-sulfate]
- Ki [6]: 1690 nM
- IC50 [2]: > 10000 nM
- Ki [5]: > 10000 nM

Compound: C[N+]1(C)CC[C@]23c4c5ccc(OC(=O)c6ccccc6)c4O[C@H]2[C@@H](OS(=O)(=O)[O-])C=C[C@H]3[C@H]1C5 [NIDA # 20,274, 3-O-Benzoyl-N-methylmorphinium-6-O-sulfate]
- Ki [6]: > 10000 nM
- IC50 [2]: > 10000 nM
- inhibition at 100 µM ([3]; Cavia porcellus, read-out: Guinea pig ileum maximum inhibition): 38%
- Ki [5]: > 10000 nM

Compound: C=CCN1CC[C@]23c4c5ccc(O)c4O[C@H]2[C@@H](O)C=C[C@H]3[C@H]1C5 [Nalorphine]
- Guinea Pig Ileum DR with Nor-BNI [7]: 643.9
- Guinea Pig Ileum Ke of Nor-BNI [7]: 0.03
- IC50 [3, 14]: 29.2 nM
- Guinea Pig Ileum DR with CTAP [4]: 0.90

Compound: O=C1CC[C@@]2(O)[C@H]3Cc4ccc(O)c5c4[C@@]2(CCN3CC2CC2)[C@H]1O5 [Naltrexone-HCl]
- Ki [6]: 3.8 nM
- IC50 [2]: 230 nM

Compound: Oc1ccc2c3c1O[C@H]1[C@@H](O)C=C[C@H]4[C@@H](C2)NCC[C@@]341 [Normorphine]
- Guinea Pig Ileum DR with Nor-BNI [7]: 1.90
- Guinea Pig Ileum Ke of Nor-BNI [7]: 26.47
- Guinea Pig Ileum Ratio (Nor-BNI) [7]: 0.002
- Mouse Vas Deferens DR with Naltrindole [9]: 1.06
- Mouse Vas Deferens Ke of Naltrindole [9]: 8.38 ± 0
- Mouse Vas Deferens Ratio (Naltrindole) [9]: 0.0025
- IC50 [8, 13]: 512 nM
- IC50 [3, 14]: 47.3 nM
- Guinea Pig Ileum DR with CTAP [4]: 3.02
- Guinea Pig Ileum Ke of CTAP [4]: 50.25
- Guinea Pig Ileum Ratio (CTAP) [4]: 0.500

Compound: COc1ccc2c3c1O[C@H]1C(=O)CC[C@@]4(O)[C@@H](C2)N(C)CC[C@]314 [Oxycodone]
- Guinea Pig Ileum DR with Nor-BNI [7]: 1.45
- Guinea Pig Ileum Ke of Nor-BNI [7]: 45.84
- Guinea Pig Ileum Ratio (Nor-BNI) [7]: 0.001
- Mouse Vas Deferens DR with Naltrindole [9]: 0.79
- IC50 [8, 13]: 6330 nM
- IC50 [3, 14]: 324 nM
- Guinea Pig Ileum DR with CTAP [4]: 2.30
- Guinea Pig Ileum Ke of CTAP [4]: 78.66
- Guinea Pig Ileum Ratio (CTAP) [4]: 0.322

Compound: COC(=O)/C=C/C(=O)N[C@@H]1CC[C@@]2(O)[C@H]3Cc4ccc(O)c5c4[C@@]2(CCN3CC2CC2)[C@H]1O5 [β-FNA-HCl]
- Ki [6]: 0.8 nM
- Ki [1]: 0.4 nM
- IC50 [2]: 66.5 nM

Compound: (−) Cyclazocine
- Ki [6]: 0.2 nM
- Ki [1]: 0.1 nM
- IC50 [2]: 17.3 nM
- IC50 [3, 10]: 1.05 nM
- Guinea Pig Ileum DR with CTAP [4]: 1.00 ± 0.00

Compound: Dynorphin (1-13)-NH2
- Ki [6]: 4.1 nM
- IC50 [2]: 24.6 nM

Compound: Dynorphin (1-13)-OH
- Ki [6]: 15.4 nM
- IC50 [2]: 180 nM

Compound: Dynorphin (1-17)-OH
- Ki [6]: 5.1 nM
- IC50 [2]: 29.5 nM

Compound: Dynorphin A (1-17)
- IC50 [8, 15]: 29.3 nM
- IC50 [3, 11]: 0.95 nM
- DR with CTAP [4]: 1.52
- Ke of CTAP [4]: 209.89

Compound: Dynorphin B
- IC50 [8, 15]: 39.1 nM
- IC50 [3, 11]: 4.4 nM
- DR with CTAP [4]: 1.08
- Ke of CTAP [4]: 344.83

Compound: Dynorphin B-OH
- Ki [6]: 14.2 nM
- IC50 [2]: 70 nM

Compound: Dynorphin(1-9)-OH
- Ki [6]: 20.2 nM
- Mouse Vas Deferens DR with Naltrindole [9]: 5.71
- Mouse Vas Deferens Ke of Naltrindole [9]: 0.281
- IC50 [2]: 324 nM
- IC50 [8, 12]: 12.2 nM
- IC50 [3, 10]: 4.69 nM
- Guinea Pig Ileum DR with CTAP [4]: 1.13
- Guinea Pig Ileum Ke of CTAP [4]: 357.14

Compound: Met-Enkephalin
- Ki [6]: 277 nM
- Mouse Vas Deferens DR with Naltrindole [9]: 13.63
- Mouse Vas Deferens Ke of Naltrindole [9]: 0.082
- IC50 [2]: > 10000 nM
- IC50 [8, 12]: 1.52 nM
- IC50 [3, 10]: 27.4 nM
- Guinea Pig Ileum DR with CTAP [4]: 5.08±
- Guinea Pig Ileum Ke of CTAP [4]: 24.50

Compound: [D-Pen^3.5-enkephalin] [DPDPE-OH]
- Ki [6]: > 1000 nM
- Guinea Pig Ileum DR with Nor-BNI [7]: 1.54
- Guinea Pig Ileum Ke of Nor-BNI [7]: 50.68
- Guinea Pig Ileum Ratio (Nor-BNI) [7]: 0.001
- Mouse Vas Deferens DR with Naltrindole [9]: 53.11
- Mouse Vas Deferens Ke of Naltrindole [9]: 0.021
- Mouse Vas Deferens Ratio (Naltrindole) [9]: 1.000
- IC50 [2]: > 10000 nM
- IC50 [3, 10]: 4130 nM
- Guinea Pig Ileum DR with CTAP [4]: 5.64
- Guinea Pig Ileum Ke of CTAP [4]: 25.83
- Guinea Pig Ileum Ratio (CTAP) [4]: 0.980
